Results from ChEMBL document CHEMBL1126573, “Non-peptide angiotensin II receptor antagonists. 1. Design, synthesis, and biological activity of N-substituted indoles and dihydroindoles” (J Med Chem, 1993).

Assays:
[1] = molecular target: T1, Type-2 angiotensin II receptor (Rattus norvegicus, UniProt P35351); assay: In vitro antagonist activity against angiotensin II receptor type 2 in rat midbrain using [125I]-Sar,Ile AII.; format: functional
T1 sequence (P35351 whole entry): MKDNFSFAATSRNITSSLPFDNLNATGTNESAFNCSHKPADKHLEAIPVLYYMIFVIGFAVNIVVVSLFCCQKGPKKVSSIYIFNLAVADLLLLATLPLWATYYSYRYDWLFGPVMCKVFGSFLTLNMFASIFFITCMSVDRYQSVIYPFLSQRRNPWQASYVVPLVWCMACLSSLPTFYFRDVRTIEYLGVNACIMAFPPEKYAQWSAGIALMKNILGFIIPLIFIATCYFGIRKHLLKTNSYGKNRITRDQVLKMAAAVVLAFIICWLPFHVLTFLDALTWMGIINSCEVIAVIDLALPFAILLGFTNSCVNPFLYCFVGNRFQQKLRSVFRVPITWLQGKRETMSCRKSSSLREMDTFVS

[2] = molecular target: T2, Type-1 angiotensin II receptor (Oryctolagus cuniculus, UniProt P34976); assay: In vitro antagonist activity against angiotensin II receptor type 1 in rabbit aorta using [125I]-Sar, Ile AII.; format: functional, tissue-based
T2 sequence (P34976 whole entry): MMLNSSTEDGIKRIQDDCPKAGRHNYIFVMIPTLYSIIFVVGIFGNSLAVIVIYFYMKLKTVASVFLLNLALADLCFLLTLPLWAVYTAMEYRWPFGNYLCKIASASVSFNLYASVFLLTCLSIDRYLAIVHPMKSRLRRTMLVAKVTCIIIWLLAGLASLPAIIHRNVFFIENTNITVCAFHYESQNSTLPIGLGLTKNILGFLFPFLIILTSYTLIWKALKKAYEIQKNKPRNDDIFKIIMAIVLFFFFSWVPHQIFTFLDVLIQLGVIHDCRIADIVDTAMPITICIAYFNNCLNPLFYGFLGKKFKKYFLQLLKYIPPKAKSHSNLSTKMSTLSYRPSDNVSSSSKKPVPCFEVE

CCc1nc2c(C)cc(C)nc2n1Cc1ccc2c(ccn2Cc2cccc([N+](=O)[O-])c2C(=O)O)c1
IC50 [1]: 14000 nM
IC50 [2]: 160 nM

CCc1nc2c(C)cc(C)nc2n1Cc1ccc2c(ccn2C(=O)c2ccccc2-c2nnn[nH]2)c1
IC50 [1]: 130 nM
IC50 [2]: 5 nM

CCc1nc2c(C)cc(C)nc2n1Cc1ccc2c(ccn2C(=O)c2ccccc2C(=O)O)c1
IC50 [1]: 6600 nM
IC50 [2]: 20 nM

CCc1nc2c(C)cc(C)nc2n1Cc1ccc2c(c1)CCN2C(=O)c1ccccc1-c1nnn[nH]1
IC50 [1]: > 10000 nM
IC50 [2]: 780 nM

CCc1nc2c(C)cc(C)nc2n1Cc1ccc2c(c1)CCN2C(=O)c1ccccc1C(=O)O
IC50 [1]: 10000 nM
IC50 [2]: 48 nM

CCc1nc2c(C)cc(C)nc2n1Cc1ccc2c(c1)CCN2C(C#N)c1cccc(C)c1 (stereo unspecified)
IC50 [1]: 10500 nM
IC50 [2]: 1600 nM

CCc1nc2c(C)cc(C)nc2n1Cc1ccc2c(c1)CCN2C(C#N)c1ccccc1C (stereo unspecified)
IC50 [1]: 13000 nM
IC50 [2]: 1100 nM

CCc1nc2c(C)cc(C)nc2n1Cc1ccc2c(c1)CCN2C(=O)c1cc(Cl)c(Cl)cc1C(=O)O
IC50 [1]: 1000 nM
IC50 [2]: 170 nM

CCc1nc2c(C)cc(C)nc2n1Cc1ccc2c(ccn2C(=O)c2ccccc2NC(=O)O)c1
IC50 [1]: 17000 nM
IC50 [2]: 92 nM

CCc1nc2c(C)cc(C)nc2n1Cc1ccc2c(c1)CCN2C(C(=O)OC)c1ccccc1 (stereo unspecified)
IC50 [1]: 16000 nM
IC50 [2]: 170 nM

CCc1nc2c(C)cc(C)nc2n1Cc1ccc2c(c1)CCN2C(=O)c1ccccc1C#N
IC50 [1]: 25000 nM
IC50 [2]: 670 nM

CCc1nc2c(C)cc(C)nc2n1Cc1ccc2c(ccn2Cc2c(Cl)cccc2-c2nnn[nH]2)c1
IC50 [1]: 12000 nM
IC50 [2]: 1 nM

CCc1nc2c(C)cc(C)nc2n1Cc1ccc2c(c1)CCN2C(C#N)c1ccccc1 (stereo unspecified)
IC50 [1]: 11500 nM
IC50 [2]: 350 nM

CCc1nc2c(C)cc(C)nc2n1Cc1ccc2c(ccn2C(=O)c2cc(Cl)c(Cl)cc2C(=O)O)c1
IC50 [1]: 1900 nM
IC50 [2]: 15 nM

CCc1nc2c(C)cc(C)nc2n1Cc1ccc2c(ccn2Cc2ccccc2C#N)c1
IC50 [1]: > 30000 nM
IC50 [2]: 320 nM

CCc1nc2c(C)cc(C)nc2n1Cc1ccc2c(ccn2Cc2ccccc2C(=O)O)c1
IC50 [1]: > 30000 nM

CCc1nc2c(C)cc(C)nc2n1Cc1ccc2c(ccn2Cc2ccccc2-c2nn[nH]n2)c1
IC50 [1]: > 18000 nM
IC50 [2]: 8.7 nM

CCc1nc2c(C)cc(C)nc2n1Cc1ccc2c(ccn2Cc2c(Cl)cccc2C#N)c1
IC50 [1]: > 30000 nM
IC50 [2]: 120 nM

CCc1nc2c(C)cc(C)nc2n1Cc1ccc2c(c1)CCN2C(C#N)c1ccc(C)cc1 (stereo unspecified)
IC50 [1]: 14000 nM

CCc1nc2c(C)cc(C)nc2n1Cc1ccc2c(ccn2Cc2ccccc2C(=O)OC)c1
IC50 [1]: 21000 nM
IC50 [2]: 620 nM

CCc1nc2c(C)cc(C)nc2n1Cc1ccc2c(ccn2C(=O)c2ccccc2C#N)c1
IC50 [1]: > 50000 nM
IC50 [2]: 250 nM

CCc1nc2c(C)cc(C)nc2n1Cc1ccc2c(c1)CCN2C(=O)c1c(Cl)ccc(Cl)c1C(=O)O
IC50 [1]: 6500 nM
IC50 [2]: 18 nM

CCc1nc2c(C)cc(C)nc2n1Cc1ccc2c(ccn2Cc2ccccc2NC(=O)OC)c1
IC50 [1]: > 30000 nM

CCc1nc2c(C)cc(C)nc2n1Cc1ccc2c(ccn2C(=O)c2c(Cl)ccc(Cl)c2C(=O)O)c1
IC50 [1]: 2700 nM
IC50 [2]: 0.8 nM

CCc1nc2c(C)cc(C)nc2n1Cc1ccc2c(c1)CCN2C(C(=O)O)c1ccccc1 (stereo unspecified)
IC50 [1]: 14000 nM
IC50 [2]: 82 nM

CCc1nc2c(C)cc(C)nc2n1Cc1ccc2c(ccn2C(=O)c2ccccc2)c1
IC50 [1]: 8900 nM
IC50 [2]: 240 nM

CCc1nc2c(C)cc(C)nc2n1Cc1ccc2c(c1)CCN2C(c1ccccc1)c1nnn[nH]1 (stereo unspecified)
IC50 [1]: > 30000 nM

CCc1nc2c(C)cc(C)nc2n1Cc1ccc(-c2ccccc2-c2nnn[nH]2)cc1 [L-158809]
IC50 [1]: > 10000 nM
